Test results as given in ChEMBL document CHEMBL3244168, “Synthesis and antitumor activity of preactivated isophosphamide analogues bearing modified alkylating functionalities” (J Med Chem, 1978).
In brackets after ≈: the same amount, converted by molar mass.

Columns and labels:
[1] = tested on: L1210; assay: Cytotoxicity against mouse L1210 cells assessed as growth inhibition after 72 hrs; assay type: functional; settings: L1210, 72 h, read-out: ED50 (the source's name)
[2] = tested on: L1210; assay: Antileukemic activity against mouse L1210 cells allografted in ip dosed BDF1 mouse administered 24 hrs; assay type: functional
[3] = tested on: L1210; assay: Ratio of ILSmax to ILS30 for antileukemic activity against mouse L1210 cells allografted in ip dosed BDF1 mouse; assay type: functional
[4] = tested on: L1210; assay: Antileukemic activity against mouse L1210 cells allografted in ip dosed BDF1 mouse assessed as maximum tolerated dose for survival over 30 days administered 24 hrs; assay type: functional
[5] = tested on: Mus musculus; assay: Toxicity in BDF1 mouse allografted with mouse L1210 cells assessed as mortality at 80 mg/kg, ip administered 24 hrs measured within 30 days; assay type: organism-based; parameters: dose 80 mg/kg, route intraperitoneal; settings: in vivo
[6] = tested on: L1210; assay: Antileukemic activity against mouse L1210 cells allografted in BDF1 mouse assessed as mean survival time at 70 mg/kg, ip administered 24 hrs (Rvb 4.6 +/- 0.16 days); assay type: functional; settings: route intraperitoneal
[7] = tested on: L1210; assay: Antileukemic activity against mouse L1210 cells allografted in BDF1 mouse assessed as mean survival time at 130 mg/kg, ip administered 24 hrs (Rvb 4.6 +/- 0.16 days); assay type: functional; settings: route intraperitoneal
[8] = tested on: L1210; assay: Antileukemic activity against mouse L1210 cells allografted in BDF1 mouse assessed as mean survival time at 330 mg/kg, ip administered 24 hrs (Rvb 4.6 +/- 0.16 days); assay type: functional; settings: route intraperitoneal
[9] = tested on: L1210; assay: Antileukemic activity against mouse L1210 cells allografted in BDF1 mouse assessed as mean survival time at 530 mg/kg, ip administered 24 hrs (Rvb 4.6 +/- 0.16 days); assay type: functional; settings: route intraperitoneal
[10] = tested on: L1210; assay: Antileukemic activity against mouse L1210 cells allografted in BDF1 mouse assessed as increase in life span at 70 mg/kg, ip administered 24 hrs relative to control; assay type: functional; settings: route intraperitoneal
[11] = tested on: L1210; assay: Antileukemic activity against mouse L1210 cells allografted in BDF1 mouse assessed as increase in life span at 130 mg/kg, ip administered 24 hrs relative to control; assay type: functional; settings: route intraperitoneal
[12] = tested on: L1210; assay: Antileukemic activity against mouse L1210 cells allografted in BDF1 mouse assessed as increase in life span at 330 mg/kg, ip administered 24 hrs relative to control; assay type: functional; settings: route intraperitoneal
[13] = tested on: L1210; assay: Antileukemic activity against mouse L1210 cells allografted in BDF1 mouse assessed as increase in life span at 530 mg/kg, ip administered 24 hrs relative to control; assay type: functional; settings: route intraperitoneal
[14] = tested on: L1210; assay: Antileukemic activity against mouse L1210 cells allografted in iv dosed BDF1 mouse assessed as survival over 60 days administered 24 hrs; assay type: functional; settings: read-out: MED
[15] = tested on: L1210; assay: Antileukemic activity against mouse L1210 cells allografted in po dosed BDF1 mouse assessed as survival over 60 days administered 24 hrs; assay type: functional; settings: read-out: MED
[16] = tested on: L1210; assay: Antileukemic activity against mouse L1210 cells allografted in iv dosed BDF1 mouse assessed as maximum tolerated dose for survival over 60 days administered 24 hrs; assay type: functional
[17] = tested on: L1210; assay: Antileukemic activity against mouse L1210 cells allografted in po dosed BDF1 mouse assessed as maximum tolerated dose for survival over 60 days administered 24 hrs; assay type: functional
[18] = tested on: L1210; assay: Ratio of Cmax to Cmin for antileukemic activity against mouse L1210 cells allografted in iv dosed BDF1 mouse assessed as survival over 60 days; assay type: functional
[19] = tested on: L1210; assay: Ratio of Cmax to Cmin for antileukemic activity against mouse L1210 cells allografted in po dosed BDF1 mouse assessed as survival over 60 days; assay type: functional
[20] = tested on: L1210; assay: Antileukemic activity against mouse L1210 cells allografted in BDF1 mouse assessed as mean survival time at 50 mg/kg, ip administered 24 hrs (Rvb 4.6 +/- 0.16 days); assay type: functional; settings: route intraperitoneal
[21] = tested on: L1210; assay: Antileukemic activity against mouse L1210 cells allografted in BDF1 mouse assessed as mean survival time at 100 mg/kg, ip administered 24 hrs (Rvb 4.6 +/- 0.16 days); assay type: functional; settings: route intraperitoneal
[22] = tested on: L1210; assay: Antileukemic activity against mouse L1210 cells allografted in BDF1 mouse assessed as mean survival time at 200 mg/kg, ip administered 24 hrs (Rvb 4.6 +/- 0.16 days); assay type: functional; settings: route intraperitoneal
[23] = tested on: L1210; assay: Antileukemic activity against mouse L1210 cells allografted in BDF1 mouse assessed as increase in life span at 50 mg/kg, ip administered 24 hrs relative to control; assay type: functional; settings: route intraperitoneal
[24] = tested on: L1210; assay: Antileukemic activity against mouse L1210 cells allografted in BDF1 mouse assessed as increase in life span at 100 mg/kg, ip administered 24 hrs relative to control; assay type: functional; settings: route intraperitoneal
[25] = tested on: L1210; assay: Antileukemic activity against mouse L1210 cells allografted in BDF1 mouse assessed as increase in life span at 200 mg/kg, ip administered 24 hrs relative to control; assay type: functional; settings: route intraperitoneal
[26] = tested on: L1210; assay: Antileukemic activity against mouse L1210 cells allografted in BDF1 mouse assessed as increase in life span at 400 mg/kg, ip administered 24 hrs relative to control
[27] = tested on: L1210; assay: Antileukemic activity against mouse L1210 cells allografted in ip dosed BDF1 mouse assessed as survival over 60 days administered 24 hrs; assay type: functional; settings: read-out: MED
[28] = tested on: L1210; assay: Antileukemic activity against mouse L1210 cells allografted in ip dosed BDF1 mouse assessed as maximum tolerated dose for survival over 60 days administered 24 hrs; assay type: functional
[29] = tested on: L1210; assay: Ratio of Cmax to Cmin for antileukemic activity against mouse L1210 cells allografted in ip dosed BDF1 mouse assessed as survival over 60 days; assay type: functional

Q: For `CS(=O)(=O)OCCN1C(OO)CCOP1(=O)N(CCCl)CCCl` (stereo unspecified), which EC50 [1] is on record?
A: 0.06 µg/mL (≈ 0.144 µM)

Q: What about the ILS30 [2] of the same molecule?
A: 10 mg/kg

Q: And the Ratio [3]?
A: 8

Q: And the ILSmax [4]?
A: 80 mg/kg

Q: What about the Activity [5] of the same molecule?
A: Toxic

Q: `CN(CCBr)P1(=O)OCCC(OO)N1CCCl` (stereo unspecified) was tested. Which EC50 [1] did it give?
A: 0.3 µg/mL (≈ 0.853 µM)

Q: What about the ILS30 [2] of the same molecule?
A: 6 mg/kg

Q: What about the Ratio [3] of the same molecule?
A: 12

Q: And the ILSmax [4]?
A: 70 mg/kg

Q: With `O=P1(NCCCl)OCCCN1CCCl` (stereo unspecified) [IFOSFAMIDE] as the molecule, how does the MST [6] read?
A: 8.8 days

Q: What about the MST [7] of the same molecule?
A: 11.9 days

Q: And the MST [8]?
A: >24.3 days

Q: What about the MST [9] of the same molecule?
A: >16.5 days

Q: What about the ILS at 70 mg/kg [10] of the same molecule?
A: 90%

Q: What about the ILS at 130 mg/kg [11] of the same molecule?
A: 158%

Q: And the ILS at 330 mg/kg [12]?
A: > 427%

Q: And the ILS at 530 mg/kg [13]?
A: > 251%

Q: And the minimal effective dose [14]?
A: 280 mg/kg

Q: What about the minimal effective dose [15] of the same molecule?
A: 250 mg/kg

Q: What about the MTD [16] of the same molecule?
A: 320 mg/kg

Q: What about the MTD [17] of the same molecule?
A: 250 mg/kg

Q: And the Ratio [18]?
A: 1.1

Q: What about the Ratio [19] of the same molecule?
A: 1

Q: With `CCS(=O)(=O)OCCN1C(OO)CCOP1(=O)N(C)CCCl` (stereo unspecified) as the molecule, how does the EC50 [1] read?
A: 1 µg/mL (≈ 2.63 µM)

Q: And the ILS30 [2]?
A: 5 mg/kg

Q: And the Ratio [3]?
A: 14

Q: What about the ILSmax [4] of the same molecule?
A: 70 mg/kg

Q: Which results are given for `CCN(CCCl)P1(=O)OCCC(OO)N1CCOS(C)(=O)=O` (stereo unspecified)?
A: EC50 [1]: 0.5 µg/mL (≈ 1.31 µM); ILS30 [2]: 6 mg/kg; Ratio [3]: 12; ILSmax [4]: 70 mg/kg

Q: `O=P1(N(CCCl)CCCl)NCCCO1` (stereo unspecified) [CYCLOPHOSPHAMIDE ANHYDROUS] was tested. Which MST [20] did it give?
A: 7.8 days

Q: What about the MST [21] of the same molecule?
A: 12.4 days

Q: What about the MST [22] of the same molecule?
A: >18.9 days

Q: What about the ILS at 50 mg/kg [23] of the same molecule?
A: 68%

Q: What about the ILS at 100 mg/kg [24] of the same molecule?
A: 169%

Q: And the ILS at 200 mg/kg [25]?
A: > 310%

Q: What about the ILS at 400 mg/kg [26] of the same molecule?
A: > 283%

Q: What about the minimal effective dose [14] of the same molecule?
A: 200 mg/kg

Q: And the minimal effective dose [27]?
A: 100 mg/kg

Q: What about the minimal effective dose [15] of the same molecule?
A: 200 mg/kg

Q: And the MTD [16]?
A: 200 mg/kg

Q: What about the MTD [28] of the same molecule?
A: 200 mg/kg

Q: And the MTD [17]?
A: 200 mg/kg

Q: What about the Ratio [18] of the same molecule?
A: 1

Q: And the Ratio [29]?
A: 2

Q: What about the Ratio [19] of the same molecule?
A: 1

Q: Which EC50 [1] does the source give for `CN(CCBr)P1(=O)OCCC(OO)N1CCOS(C)(=O)=O` (stereo unspecified) here?
A: 1 µg/mL (≈ 2.43 µM)

Q: And the ILS30 [2]?
A: 3 mg/kg

Q: And the Ratio [3]?
A: 20

Q: What about the ILSmax [4] of the same molecule?
A: 60 mg/kg
